We go through seven molecules from patent US20240208972A1, “LRRK2 INHIBITORS AND USES THEREOF” (NEURON23, INC., priority 2022, published 2024).

What is called IC50 is the point on the concentration scale where inhibition reaches its midpoint. Lower therefore signals inhibition by little substance.

A value given as a limit tells only on which side of the number the result lay.

One data set relates to Caco-2 cells. The experiment in a line: Caco-2 bidirectional permeability. The class given is in vitro ADME. Particulars: for Caco-2 A2B (10^−6 cm/s): A to B; for Caco-2 A2B (10^−6 cm/s) / Caco-2 B2A (10^−6 cm/s): HBSS pH 7.4, 2 hours; for Caco-2 B2A (10^−6 cm/s): B to A; for Caco-2 ER: Efflux Ratio=Papp (BA)/Papp (AB). How it is done: The compounds disclosed herein were tested in vitro on CaCo2 cell penetration according to the following procedures.
Test compounds were prepared in dimethyl sulfoxide (DMSO).
Caco-2 cells purchased from ATCC were seeded onto […] (PET) in 96-well Corning Insert plates at 1×10^5 cells/cm^2. The media were refreshed every 4 to 5 days until the 21st to 28th day for confluent cell monolayer formation.
Experiments were run in duplicate using a HBSS transport buffer containing 10 mM HEPES at pH 7.4. The test article TEST COMPOUND was tested bi-directionally at […] concentrations, the control compound digoxin was tested bi-directionally at 10 μM, and nadolol and metoprolol were tested at 2.0 μM in the A to B direction. Final DMSO concentrations were adjusted to less than 1%. The plates were incubated for 2 hours in a CO2 incubator at 37±1° C. with 5% CO2 at saturated humidity without shaking. Following incubation, samples were mixed with acetonitrile containing internal standard and centrifuged at 3200×g for 10 minutes. Then 200 μL of supernatant was taken from all samples. For TEST COMPOUND and digoxin, the supernatant was diluted with 200 μL of ultra-pure water and for nadolol and metoprolol, the supernatant was diluted with 600 μL of ultra-pure water. All samples were analyzed by LC-MS/MS. Concentrations of TEST COMPOUND and control compounds were determined in starting solutions, donor well solutions, and receiver well solutions using peak area ratios (PAR) of analyte to internal standard. After the transport assay, a lucifer yellow rejection assay was run to determine the Caco-2 cell monolayer integrity.
The apparent permeability (Papp), the % recovery and the efflux ratio were calculated as follows: • 1. Papp=(dCr/dt)×Vr/(A×C0) • 2. % Recovery=100×[(Vr×Cr)+(Vd×Cd)]/(Vd×C0) • 3. Efflux Ratio=Papp (BA)/Papp (AB) • Where: • dCr/dt is the slope of the cumulative concentration in the receiver compartment versus time (mM/s). • Vr and Vd is the volume in the receiver and donor compartments (0.075 mL on the apical side, 0.25 mL on the basolateral side), respectively. • A is the surface area of the cell monolayer (0.0804 cm^2). • C0 is the measured donor concentrations (μM) at the beginning of the experiment. • Cd and Cr are the final measured concentrations in the donor and receiver compartments, respectively.
The cell monolayer tight junction integrity assay was conducted after completion of the transport assay by adding Lucifer Yellow (LY) to the apical wells at 100 μM and incubating the cells for 30 minutes. Following incubation, tight junction integrity was assessed from LY concentrations in the basolateral compartment (receiver well) and the apical compartment (donor well) using fluorescence detection as follows: […]

Data set [1] has as its target T1, wt human LRRK2, catalytic site (Homo sapiens, UniProt Q5S007).
T1 construct: wt human LRRK2, catalytic site, catalytic site (ThermoFisher/USA); purchased ThermoFisher
The experiment in a line: TR-FRET LanthaScreen Tb Kinase Activity Assay, LRRK2 kinase inhibition. Type of data set: biochemical. Particulars: 2 nM wt human LRRK2, 400 nM peptide, 38 μM ATP. The protocol:
The compounds disclosed herein were tested for their inhibitory effect on LRRK2 kinase according to the following procedures.
The protocol for basic TR-FRET LanthaScreen Tb Kinase Activity Assay inhibitor studies is as follows. LanthaScreen Kinase Activity Assays (ThermoFisher/USA) to evaluate inhibitors were performed by addition of 100 nL of test compound in the corresponding DMSO dilutions/5 L of kinase/fluorescein-ERM(LRRKtide) peptide mixture, Compound & kinase were pre-incubated for 15 minutes, then 5 μl of ATP into 384 well small volume plates. After incubation for 120 minutes at room temperature, the detection reagents containing Tb-anti-pLRRKtide antibody were added to monitor the phosphrylation level of peptide. Then, after 60 min minutes incubation at room temperature plates were read in Envision. Data analysis of emission ratios was according to the LanthaScreen Tb Kinase Activity Assay protocol.
Kinase and assay components were adjusted to final concentrations according to the kit protocol. For LRRK2: 2 nM wt human LRRK2, catalytic site, catalytic site (ThermoFisher/USA), 400 nM peptide, 38 μM ATP in 1× Kinase Buffer A.
Basic protocol for TR-FRET LanthaScreen Tb Kinase Activity Assay inhibitor studies involved two steps: Enzymatic step: Addition of 100 nl of test compound in corresponding DMSO dilutions, 5 μl of kinase/substrate mixture, 5 μl of ATP into 384 well small volume plates. Incubation for 120 minutes at room temperature.
Detection step: Addition of 10 μl EDTA & antibody, read plate after 60 minutes. Data analysis of emission ratios according to KinEASE assay protocol.
Kinase and assay components were adjusted to final concentrations according to the kit protocol.

The nature of data set [2]: Human hepatocyte stability, in vitro h-Hept CLpredict. As to conditions: cryopreserved hepatocytes, predicted hepatic clearance, cells without asterisk, read-out: hHep Cl. Type of data set: in vitro ADME. The protocol: The compounds disclosed herein were tested in vitro on human hepatocyte for in vitro h-Hept CLpredict according to the following procedures. • 1. Compound sock solutions were prepared by dissolving test compound and positive control in dimethyl sulfoxide (DMSO) at a concentration of 10 mM. Stock solutions were then diluted to 100 μM solutions by combining 198 μL of 50% acetonitrile/50% water with 2 μL of the 10 mM stock stock in separate conical tubes. • 2. Cryopreserved hepatocytes were prepared as follows: Incubation medium (William's E Medium supplemented with GlutaMAX) and hepatocyte thawing medium were placed in a 37° C. water bath and allowed to warm for at least 15 minutes prior to use. Cryopreserved hepatocytes were removed from storage, ensuring that vials remained at cryogenic temperatures until thawed. Cells were thawed by placing the vials in a 37° C. water bath and gently shaking the vials for 2 minutes. After thawing was completed, vials were sprayed with 70% ethanol and transferred to a biosafety cabinet. Hepatocytes were transferred into 50 mL conical tube containing thawing medium using wide-bore pipette tips. Tubes were placed into a centrifuge and spun at 100 g for 10 minutes. Then thawing medium was aspirated and hepatocytes were resuspended in enough incubation medium to yield−1.5×10^6 cells/mL. Cells were counted using acridine orange and propidium iodide (AO/PI) staining, and the viable cell density was determined. Cells were diluted with incubation medium to a working cell density of 0.5×10^6 viable cells/mL. • 3. To determine hepatocyte stability, 198 μL of hepatocytes were transferred into each well of a 96-well non-coated plate. Plates were placed in an incubator to allow the hepatocytes to warm for 10 minutes. • 4. The reaction was started by transferring 2 μL of the 100 μM test compound or positive control solution into respective wells of the 96-well non-coated plates. Plates were returned to the incubator until 25 μL aliquots of well contents were sampled at time points of 0, 15, 30, 60, 90 and 120 minutes. The aliquots were then mixed with 6 volumes (150 μL) of acetonitrile containing internal standard, IS (100 nM alprazolam, 200 nM caffeine and 100 nM tolbutamide) to terminate the reaction and vortexed for 5 minutes. After centrifuging the samples for 45 minutes at 3,220 g, aliquots of 100 μL of the supernatant were taken and diluted with 100 μL of ultra-pure water. The mixture was used for LC/MS/MS analysis. All incubations were performed in duplicate.
All calculations were carried out using Microsoft Excel. Peak area ratios (PAR) were determined from extracted ion chromatograms. The in vitro half-life (t1/2) of parent compound was determined by regression analysis of the percent parent disappearance vs. time curve as follows:
The in vitro half-life (in vitro t1/2) was determined from the slope value:
Conversion of the in vitro t1/2 (in minutes) into the in vitro intrinsic clearance (in vitro CLint, in μL/min/1×10^6 cells) was done using the following equation (mean of duplicate determinations): […]
The scaled-up intrinsic clearance (CLint, mL/min/kg), predicted hepatic clearance (CLH, mL/min/kg) and hepatic extraction ratio (ER) were calculated using the following equations:
CLint=(0.693/t1/2)*(1/(hepatocyte concentration (0.5*10^6 cells/mL))*scaling factors (Table (A)
• CLHept-predict=(QH*Scaled-up CLint*fub)/(QH+Scaled-up CLint*fub) • ER=CLH/QH • Where: • V=incubation volume (0.2 mL) • N=number of hepatocytes per well (0.1*10^6 cells) • QH=hepatic blood flow (mL/min/kg) (Table (A)
• fub=fraction of unbound drug in plasma, assumed to be 1 • Values used for calculation of the predicted hepatic clearance parameters data processing rules are outlined in the following tables (A) (B)

T1 sequence (Q5S007 1879-2138 limits assumed): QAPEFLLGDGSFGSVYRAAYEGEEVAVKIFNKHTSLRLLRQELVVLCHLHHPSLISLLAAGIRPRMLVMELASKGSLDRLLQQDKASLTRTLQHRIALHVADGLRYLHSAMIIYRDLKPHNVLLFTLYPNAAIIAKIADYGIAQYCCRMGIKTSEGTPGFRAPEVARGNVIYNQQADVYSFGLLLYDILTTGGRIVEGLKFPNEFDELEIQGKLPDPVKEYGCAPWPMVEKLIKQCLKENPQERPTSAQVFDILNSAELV

`Cc1n[nH]c2c1N=C(c1c(F)cccc1F)Nc1c-2cc(N2C[C@H](C)O[C@@H](C)C2)nc1C` [Example 39, (2S,6S)-4-[8-(2,6-difluorophenyl)-5,11-dimethyl-3,4,7,9,12-pentazatricyclo[8.4.0.02,6]tetradeca-1(10),2(6),4,7,11,13-hexaen-13-yl]-2,6-dimethyl-morpholine]: in the data set on Caco-2 cells, the “Caco-2 A2B (10^−6 cm/s)” value was “H (H (High permeability)”: A2B (B2A)>5)”, the “Caco-2 B2A (10^−6 cm/s)” value is given as “H (H (High permeability)”: A2B (B2A)>5)” and the “Caco-2 ER” value is on record as “N (N (Non-substrate)”: ER<2.5)”. The IC50 in data set [1] is below 2 nM. Also, the CLhep predicted at 1 µM in data set [2] is 6.3 to 14.7 mL/min/kg.
Take `Cc1n[nH]c2c1N=C(c1c(F)cccc1F)Nc1c-2cc(N2CCC(C)(C#N)CC2)nc1C` [Example 43, 1-[8-(2,6-difluorophenyl)-5,11-dimethyl-3,4,7,9,12-pentazatricyclo[8.4.0.02,6]tetradeca-1(10),2(6),4,7,11,13-hexaen-13-yl]-4-methyl-piperidine-4-carbonitrile]: in the data set on Caco-2 cells, the “Caco-2 A2B (10^−6 cm/s)” value is given as “H (H (High permeability)”: A2B (B2A)>5)”, the “Caco-2 B2A (10^−6 cm/s)” value is “H (H (High permeability)”: A2B (B2A)>5)” and the “Caco-2 ER” value is recorded as “N (N (Non-substrate)”: ER<2.5)”. This molecule also returned a half-maximal inhibitory concentration (IC50) in data set [1] below 2 nM. The CLhep predicted at 1 µM in data set [2] is 6.3 to 14.7 mL/min/kg.
With `Cc1n[nH]c2c1N=C(c1c(F)cccc1F)Nc1c-2cc(N2CCOCC2)nc1C(F)F` [Example 44, 4-(7-(difluoromethyl)-5-(2,6-difluorophenyl)-3-methyl-1,6-dihydropyrazolo[4,3-d]pyrido[4,3-f][1,3]diazepin-9-yl)morpholine], in the data set with Caco-2 cells, the “Caco-2 A2B (10^−6 cm/s)” value was “H (H (High permeability)”: A2B (B2A)>5)”, the “Caco-2 B2A (10^−6 cm/s)” value is “H (H (High permeability)”: A2B (B2A)>5)” and the “Caco-2 ER” value was “N (N (Non-substrate)”: ER<2.5)”. Also, the IC50 in data set [1] is below 2 nM. Moreover, the CLhep predicted at 1 µM in data set [2] was 6.3 to 14.7 mL/min/kg.
Turning to `COc1nc(N2CCOCC2)cc2c1NC(c1c(F)cccc1F)=Nc1c(C)n[nH]c1-2` [Example 45, 4-[8-(2,6-difluorophenyl)-11-methoxy-5-methyl-3,4,7,9,12-pentazatricyclo[8.4.0.02,6]tetradeca-1(10),2(6),4,7,11,13-hexaen-13-yl]morpholine], in the data set on Caco-2 cells, the “Caco-2 A2B (10^−6 cm/s)” value is on record as “H (H (High permeability)”: A2B (B2A)>5)”, the “Caco-2 B2A (10^−6 cm/s)” value was “M (M (Moderate permeability)”: 1≤A2B (B2A)≤5)” and the “Caco-2 ER” value is recorded as “N (N (Non-substrate)”: ER<2.5)”. In addition, in data set [1], the IC50 was below 2 nM. In addition, the CLhep predicted at 1 µM in data set [2] is 6.3 to 14.7 mL/min/kg.
Take `COC[C@@H]1CN(c2cc3c(c(C)n2)NC(c2c(F)cccc2F)=Nc2c(C)n[nH]c2-3)CCO1` [Example 46, (2S)-4-[8-(2,6-difluorophenyl)-5,11-dimethyl-3,4,7,9,12-pentazatricyclo[8.4.0.02,6]tetradeca-1(10),2(6),4,7,11,13-hexaen-13-yl]-2-(methoxymethyl)morpholine]: in the data set on Caco-2 cells, the “Caco-2 A2B (10^−6 cm/s)” value is recorded as “H (H (High permeability)”: A2B (B2A)>5)”, the “Caco-2 B2A (10^−6 cm/s)” value is given as “H (H (High permeability)”: A2B (B2A)>5)” and the “Caco-2 ER” value is “N (N (Non-substrate)”: ER<2.5)”. This molecule also had an IC50 in data set [1] below 2 nM. In addition, the CLhep predicted at 1 µM in data set [2] was below 6.3 mL/min/kg.
For `CCOC[C@H]1CN(c2cc3c(c(C)n2)NC(c2c(F)cccc2F)=Nc2c(C)n[nH]c2-3)CCO1` [Example 51, (R)-4-(5-(2,6-difluorophenyl)-3,7-dimethyl-1,6-dihydropyrazolo[4,3-d]pyrido[4,3-f][1,3]diazepin-9-yl)-2-(ethoxymethyl)morpholine], in the data set on Caco-2 cells, the “Caco-2 A2B (10^−6 cm/s)” value is “M (M (Moderate permeability)”: 1≤A2B (B2A)≤5)”, the “Caco-2 B2A (10^−6 cm/s)” value was “H (H (High permeability)”: A2B (B2A)>5)” and the “Caco-2 ER” value is given as “N (N (Non-substrate)”: ER<2.5)”. The molecule also came in with an IC50 in data set [1] below 2 nM. In addition, the CLhep predicted at 1 µM in data set [2] was 6.3 to 14.7 mL/min/kg.
Taken in the same sequence, the figures for `Cc1cc(-c2ccc3c(c2)-c2[nH]nc(C)c2N=C(c2c(F)cccc2F)N3)ccn1` [Example 52, 5-(2,6-difluorophenyl)-3-methyl-9-(2-methyl-4-pyridyl)-1,6-dihydropyrazolo [4,3-d] [1, 3] benzodiazepine] were “H (H (High permeability)”: A2B (B2A)>5)”, “H (H (High permeability)”: A2B (B2A)>5)”, “N (N (Non-substrate)”: ER<2.5)”, below 2 nM and 6.3 to 14.7 mL/min/kg.
